Measurements from patent US10710978B2, “STK4 inhibitors for treatment of hematologic malignancies” (Dana-Farber Cancer Institute, Inc., priority 2015, dated 2020).
Where two headings read alike, the source gives them in different places.

Legend:
STK3 (MST2) = STK3 (MST2) (Homo sapiens (Human), UniProt Q13188); assay: Z-lyte biochemical IC50 assay (Invitrogen); conditions: ATP concentration matched the Km
YAP1 = assay: Western blotting; format: cell-based; conditions: for YAP1 levels: H929 and MM.1S cells
Source text: MM.1S, KMS20 and H929 cells are counted, diluted and plated. Cells are then […] with DMSO or different concentration of a compound of the present application for 6 hrs, 24 hrs or 48 hrs. MM cells are then collected and centrifuged at RT and the pellets are re-suspended in lysis buffer. Cell lysates are subjected to sodium dodecyl sulfate-polyacrylamide gel electrophoresis SDS-PAGE, transferred to nitrocellulose membranes, and immunoblotted with different antibodies.
MM.1S, KMS20 and H929 cells were counted, diluted and plated in six-well plates to a final concentration of 500,000 cells/well. Cells were then […] with DMSO or different concentration of a compound of the present application for 6 hrs, 24 hrs or 48 hrs. MM cells were then collected and centrifuged for 5 min, 1300 rpm at RT. The pellets were re-suspended in lysis buffer Laemli 1× (Laemli 5×: SDS 10%, DTT 500 mM, Tris-HCl pH6.8 0.4M, BromoFenol Blue, Glycerol 50%). Cell lysates were subjected to sodium dodecyl sulfate-polyacrylamide gel electrophoresis SDS-PAGE, transferred to nitrocellulose membranes, and immunoblotted with different antibodies: YAP1 (#4912), p-YAP1 (S127) (#13008), LATS1 (#9153), p-LATS1 (Thr1079) (#8654), MOB1 (#3863), p-MOB1 (Thr12) (#8843), p-MST1/p-MST2 (Thr183/Thr180) (#3681), p21 (#2947), PARP (#9532), ERK, STAT, and GAPDH (#5174) from Cell Signaling, Beverly, Mass., United States; STK4 (ab57836) (from Abcam, Cambridge, Mass., United States); PUMA (sc-28226), BAX (sc-20067), from Santa Cruz, Dallas, Tex., United States; β-actin from Sigma-Aldrich (St. Louis, Mo., United States). All antibodies were diluted 1:500, except for β-actin antibody (1:50,000 dilution). In FIG. 8, H929 cells were treated with Compound I-9 or DMSO at 1 μM concentration for 24 hours. Lysates were then obtained and immunoblot was performed using antibodies against PARP, YAP1, PUMA, BAX. p21, and GAPDH.
In FIG. 10A, H929 and MM.1S cells were treated with Compound I-1 or DMSO at 1 μM and 10 μM concentrations for 16 hours. Lysates were then obtained and immunoblot was performed using antibodies against YAP1 and GAPDH.
In FIG. 12, H929 and MM. 1S cells were treated with Compound I-9, Compound I-12, or DMSO at 3 μM and 10 μM concentrations for 72 hours. Lysates were then obtained and immunoblot was performed using antibodies against YAP1 and Actin as loading control.
FIG. 13 show a Western blot of H929 and MM.1S cells treated with Compound I-13, Compound I-28, Compound I-9, KIN001-305, BMS536924, or DMSO at 1 μM concentration for 16 hours. Lysates were then obtained and immunoblot was performed using antibodies against YAP1, Actin, and pMOB1.

JAK2 domain2 = JAK2 domain2 (Homo sapiens (Human), UniProt O60674); assay: KiNativ assay; format: binding; conditions: H929 live cell
Sequence of JAK2 domain2 (O60674 whole entry, the tested form may be a part): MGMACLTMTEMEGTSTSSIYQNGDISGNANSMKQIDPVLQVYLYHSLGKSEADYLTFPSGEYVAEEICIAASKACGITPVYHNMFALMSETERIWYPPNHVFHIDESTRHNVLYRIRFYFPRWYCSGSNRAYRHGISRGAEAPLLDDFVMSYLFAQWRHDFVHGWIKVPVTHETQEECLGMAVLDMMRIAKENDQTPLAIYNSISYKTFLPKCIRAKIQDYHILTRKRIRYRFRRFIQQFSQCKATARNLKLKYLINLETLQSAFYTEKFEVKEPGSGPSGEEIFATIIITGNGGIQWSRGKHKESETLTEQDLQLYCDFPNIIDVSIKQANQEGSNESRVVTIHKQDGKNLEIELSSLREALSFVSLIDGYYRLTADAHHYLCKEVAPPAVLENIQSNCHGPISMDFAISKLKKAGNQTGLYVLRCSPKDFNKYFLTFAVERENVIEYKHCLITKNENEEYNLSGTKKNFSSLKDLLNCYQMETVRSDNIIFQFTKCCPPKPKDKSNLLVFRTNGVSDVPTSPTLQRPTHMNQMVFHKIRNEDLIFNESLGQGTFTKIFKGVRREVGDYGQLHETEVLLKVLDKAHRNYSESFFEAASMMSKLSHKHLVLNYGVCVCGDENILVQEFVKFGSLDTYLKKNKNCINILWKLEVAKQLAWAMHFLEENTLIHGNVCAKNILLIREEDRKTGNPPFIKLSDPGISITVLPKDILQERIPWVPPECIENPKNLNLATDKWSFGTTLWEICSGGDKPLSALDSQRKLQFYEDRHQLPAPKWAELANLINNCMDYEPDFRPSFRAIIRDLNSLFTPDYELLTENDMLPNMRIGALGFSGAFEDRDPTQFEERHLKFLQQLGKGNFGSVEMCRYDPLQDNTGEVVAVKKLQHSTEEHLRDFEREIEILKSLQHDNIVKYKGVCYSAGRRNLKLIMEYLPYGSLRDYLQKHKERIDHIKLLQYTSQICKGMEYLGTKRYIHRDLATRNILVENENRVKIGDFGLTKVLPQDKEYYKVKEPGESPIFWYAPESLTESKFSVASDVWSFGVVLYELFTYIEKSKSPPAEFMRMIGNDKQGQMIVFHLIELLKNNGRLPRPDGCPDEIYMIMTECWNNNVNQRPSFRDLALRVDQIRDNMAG
Outline: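 IC50 values came from MS analysis in a KiNativ format, following compound exposure of live H929 cells at 10 μM, tested twice.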

MM.1S cells = assay: MTT cell growth assay with stromal cell supernatant; format: cell-based, human; conditions: 72 hours; for growth inhibitory effect of Lenalidomide/Pomalidomide in combination: in the presence of stromal cell supernatant
Method: FIG. 29 is a graph showing cell growth of MM.1S cells treated for 72 hours with Compound I-50 or I-51 alone or in combination with stromal cell supernatant in an MTT assay in triplicate.
FIG. 30 is a graph showing cell growth of MM.1S cells treated for 72 hours with Lenalidomide/Pomalidomide in the presence of stromal cell supernatant alone or in combination with Compound I-50 in an MTT assay in triplicate.
FIG. 31 is a graph showing cell growth of MM.1S cells treated for 72 hours with Lenalidomide/Pomalidomide in the presence of stromal cell supernatant alone or in combination with Compound I-51 in an MTT assay in triplicate.
MM. 1S, KMS20, H929 MM cells, RPMI/8226, OPM-2 and U266 were counted and diluted to a final concentration of 400,000 cells/mL. The cell were plated in 96-well plates and mixed with an equal volume of culture media containing DMSO or increasing concentration of a compound of the present application diluted in DMSO (the final DMSO concentration is equal between all tested samples), using a STARlet Robot (Hamiltonrobotics, Reno, Nev., United States). Cells with increasing concentration of compound of the present application and DMSO were […] at different time points (24 hrs to 72 hrs). Viability was assessed by MTT or Cell Titer 96® AQueous One Solution cell proliferation assay (Promega). Specifically, for the MTT assay, the 3-[4,5 dimethylthiazol-2-yl]-2,5 diphenyltetrazolium bromide-MTT (Sigma-Aldrich, St. Louis, Mo., Unites States) colorimetric survival assay was used. At the various time points (24-72 hrs), 10 μL of 5 mg/mL MTT were added to cells. After 4 hrs incubation at 37° C., medium was discarded and 100 μL MTT stop solution (DMSO or Isopropanol with 1 N HCl) was used to dissolve MTT metabolic products. Absorbance was read at 570/630 nm. For the Promega assay, at the various time points, 20 μL of Cell Titer solution is added to the cells. After 4 hrs of incubation at 37° C. absorbance was read at […].

[1] = range class, read-out: % inhibition

Sequence of STK3 (MST2) (Q13188 whole entry): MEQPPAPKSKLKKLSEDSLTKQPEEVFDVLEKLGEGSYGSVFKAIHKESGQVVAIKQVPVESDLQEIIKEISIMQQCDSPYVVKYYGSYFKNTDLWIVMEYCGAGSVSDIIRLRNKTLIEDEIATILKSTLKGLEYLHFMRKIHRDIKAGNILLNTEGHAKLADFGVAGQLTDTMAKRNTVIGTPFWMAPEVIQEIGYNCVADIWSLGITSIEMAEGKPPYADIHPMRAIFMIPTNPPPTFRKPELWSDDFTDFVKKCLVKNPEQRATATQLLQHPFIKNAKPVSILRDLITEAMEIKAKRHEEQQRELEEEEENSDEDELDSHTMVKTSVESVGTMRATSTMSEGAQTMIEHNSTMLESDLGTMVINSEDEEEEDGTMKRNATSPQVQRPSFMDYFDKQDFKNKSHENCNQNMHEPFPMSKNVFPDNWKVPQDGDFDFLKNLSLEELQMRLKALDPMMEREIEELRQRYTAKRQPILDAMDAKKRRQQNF

In the case of `Nc1ncc(-c2cc([N+](=O)[O-])ccc2F)cc1-c1ccc2c(c1)CCNC2=O` [Compound I-1, 6-(2-amino-5-(2-fluoro-5-nitrophenyl)pyridin-3-yl)-3,4-dihydroisoquinolin-1(2H)-one], the IC50 (STK3 (MST2)) is reported as 40 to 200 nM and the “protein levels of YAP1” value (YAP1; H929 cells and MM.1S cells, 1 μM and 10 μM, 16 hours) is reported as “upregulation”.
In the case of `Nc1ncc(-c2cccc([N+](=O)[O-])c2F)cc1-c1ccc2c(c1)CCNC2=O` [Compound I-9, 6-(2-amino-5-(2-fluoro-3-nitrophenyl)pyridin-3-yl)-3,4-dihydroisoquinolin-1(2H)-one], the IC50 (STK3 (MST2)) is reported as < 40 nM, the YAP1 levels (YAP1; 1 μM, 16 hours) is reported as “increase” and the YAP1 levels (YAP1; 3 μM and 10 μM, 72 hours) is reported as “low”. For the same compound, the “protein levels of YAP1” value (YAP1; H929 cells, 1 μM, 24 hours) was “upregulation”.
For `Nc1ncc(-c2cccc3ncsc23)cc1-c1ccc2c(c1)CCNC2=O` [Compound I-13, 6-(2-amino-5-(benzo[d]thiazol-7-yl)pyridin-3-yl)-3,4-dihydroisoquinolin-1(2H)-one], the IC50 (STK3 (MST2)) was 40 to 200 nM and the YAP1 levels (YAP1; 1 μM, 16 hours) was “increase”.
With `CN(C1CC1)S(=O)(=O)c1ccc(-c2cnc(N)c(-c3ccc4c(c3)CCNC4=O)c2)c(F)c1` [Compound I-28, 4-(6-amino-5-(1-oxo-1,2,3,4-tetrahydroisoquinolin-6-yl)pyridin-3-yl)-N-cyclopropyl-3-fluoro-N-methylbenzenesulfonamide] the IC50 (STK3 (MST2)) was < 40 nM and the YAP1 levels (YAP1; 1 μM, 16 hours) was “increase”.
`COc1cc(NS(=O)(=O)C2CC2)ccc1-c1cnc(N)c(-c2ccc3c(c2)CCNC3=O)c1` [Compound I-50, N-(4-(6-amino-5-(1-oxo-1,2,3,4-tetrahydroisoquinolin-6-yl)pyridin-3-yl)-3-methoxyphenyl) cyclopropanesulfonamide] was tested, and the inhibition at 10 µM (JAK2 domain2; [1]) was 0%, the inhibition at 10 µM (JAK2 domain2; read-out: inhibition (10 μM)) was -71.2% and the “susceptibility of cells on co-culture with stromal cell supernatant (cell growth, MTT)” value (MM.1S cells) was “enhanced the susceptibility”. The “growth inhibitory effect of Lenalidomide/Pomalidomide in combination” value (MM.1S cells) was “enhanced the growth inhibitory effect”.
In the case of `Nc1ncc(-c2ccc(NS(=O)(=O)C3CC3)cc2F)cc1-c1ccc2c(c1)CCNC2=O` [Compound I-51, N-(4-(6-amino-5-(1-oxo-1,2,3,4-tetrahydroisoquinolin-6-yl)pyridin-3-yl)-3-fluorophenyl) cyclopropanesulfonamide], the “susceptibility of cells on co-culture with stromal cell supernatant (cell growth, MTT)” value (MM.1S cells) is reported as “enhanced the susceptibility” and the “growth inhibitory effect of Lenalidomide/Pomalidomide in combination” value (MM.1S cells) is reported as “enhanced the growth inhibitory effect”.
In the case of `Nc1ncc(-c2ccc(NS(=O)(=O)C3CC3)cc2OC2CCCCC2)cc1-c1ccc2c(c1)CCNC2=O` [Compound I-65, N-(4-(6-amino-5-(1-oxo-1,2,3,4-tetrahydroisoquinolin-6-yl)pyridin-3-yl)-3-(cyclohexyloxy)phenyl) cyclopropanesulfonamide], the inhibition at 10 µM (JAK2 domain2; [1]) is reported as 0% and the inhibition at 10 µM (JAK2 domain2; read-out: inhibition (10 μM)) is reported as 18.8%.
